# Structures can show the parent of a compound that is named as a salt.
row,melting point [°C],Structure (SMILES)
1,168 to 169,"Cc1ccc(C[C@@H](NC(=O)c2cccc3c2C=CCCC3)[C@@H](O)c2ccc(F)cc2)cc1OC(F)(F)C(F)F (racemic) [Example 234, N-((1RS,2SR)-2-(4-fluorophenyl)-2-hydroxy-1-((4-methyl-3-((1,1,2,2-tetrafluoroethyl)oxy)phenyl)methyl)ethyl)-6,7-dihydro-5H-benzo[a]cycloheptene-1-carboxamide]"
2,114 to 115,"CC(C)(C)OC(=O)N[C@H](Cc1cc(OC(F)(F)C(F)F)no1)[C@@H](O)c1ccc(F)cc1 (racemic) [Example 319, tert-butyl N-[(1RS,2SR)-2-(4-fluorophenyl)-2-hydroxy-1-[[3-(1,1,2,2-tetrafluoroethoxy)isooxazol-5-yl]methyl]ethyl]carbamate]"
3,174 to 175,"O=C(N[C@H](Cc1cccc(OC(F)(F)C(F)F)c1)[C@@H](O)c1ccc(F)cc1)c1cccc2c(Cl)cccc12 (racemic) [Example 333, 5-chloro-N-[(1RS,2SR)-2-(4-fluorophenyl)-2-hydroxy-1-[3-(1,1,2,2-tetrafluoroethoxy)benzyl]ethyl]naphthalene-1-carboxamide]"
4,124 to 125,"O=C(CCc1ccccc1)N[C@H](Cc1ccc(C(F)(F)F)cc1)[C@@H](O)c1ccccc1F (racemic) [Example 180, N-((1RS,2SR)-2-(2-fluorophenyl)-2-hydroxy-1-((4-(trifluoromethyl)phenyl)methyl)ethyl)-3-phenylpropanamide]"
5,181 to 182,"CC(C)C(F)(F)Cc1ccc(C[C@@H](NC(=O)c2ccc(F)c3ccccc23)[C@@H](O)c2cccc(Cl)c2)cc1 (racemic) [Example 353, N-[(1RS,2SR)-2-(3-chlorophenyl)-1-[4-(2,2-difluoro-3-methylbutyl)benzyl]-2-hydroxyethyl]-4-fluoronaphthalene-1-carboxamide]"
6,149 to 150,"CC1(C)COc2ccc(C[C@@H](NC(=O)c3cccc4c3C=CCCC4)[C@@H](O)c3cccc(Cl)c3)cc21 (racemic) [Example 377, N-{(1RS,2SR)-2-(3-chlorophenyl)-1-[(3,3-dimethyl-2,3-dihydro-1-benzofuran-5-yl)methyl]-2-hydroxyethyl}-6,7-dihydro-5H-benzo[a]cycloheptene-1-carboxamide]"
7,199 to 200,"O=C(N[C@H](Cc1ccc(F)cc1)[C@@H](O)c1ccc(F)cc1)c1cccc2ccccc12 (racemic) [Example 144, N-((1RS,2SR)-2-(4-fluorophenyl)-1-((4-fluorophenyl)methyl)-2-hydroxyethyl)-1-naphthalenecarboxamide]"
8,144 to 145,"O=C(N[C@H](Cc1cccc(OC(F)(F)C(F)F)c1)[C@@H](O)c1ccc(OCc2ccc(F)cc2)cc1)c1cccc2c1C=CCCC2 (racemic) [Example 245, N-{(1RS,2SR)-2-{4-[(4-fluorobenzyl)oxy]phenyl}-2-hydroxy-1-[3-(1,1,2,2-tetrafluoroethoxy)benzyl]ethyl}-6,7-dihydro-5H-benzo[a][7]annulene-1-carboxamide]"
9,164 to 166,"O=Cc1ccc([C@H](O)[C@@H](Cc2cccc(OC(F)(F)C(F)F)c2)NC(=O)c2cccc3c2C=CCCC3)cc1 (racemic) [Example 326, N-[(1RS,2SR)-2-(4-formylphenyl)-2-hydroxy-1-[3-(1,1,2,2-tetrafluoroethoxy)benzyl]ethyl]-6,7-dihydro-5H-benzo[a]cycloheptene-1-carboxamide]"
10,182 to 183,"CC(F)(F)c1cccc(C[C@@H](NC(=O)c2ccc(F)c3ccccc23)[C@@H](O)c2ccc(F)cc2)c1 (racemic) [Example 359, N-[(1RS,2SR)-1-[3-(1,1-difluoroethyl)benzyl]-2-(4-fluorophenyl)-2-hydroxyethyl]-4-fluoro-1-naphthamide]"
11,114 to 115,"O=C(CCc1ccccc1)N[C@H](Cc1ccc(C(F)(F)F)cc1)[C@@H](O)c1ccc(F)c(F)c1 (racemic) [Example 184, N-((1RS,2SR)-2-(3,4-difluorophenyl)-2-hydroxy-1-((4-(trifluoromethyl)phenyl)methyl)ethyl)-3-phenylpropanamide]"
12,190 to 191,"CC(C)Oc1cccc(C[C@@H](NC(=O)c2ccc(F)c3ccccc23)[C@@H](O)c2ccc(F)cc2)c1 (racemic) [Example 283, 4-fluoro-N-[(1RS,2SR)-2-(4-fluorophenyl)-2-hydroxy-1-(3-isopropoxybenzyl)ethyl]-1-naphthamide]"
13,147 to 148,"O=C(N[C@H](Cc1cccc(OC(F)(F)C(F)F)c1)[C@@H](O)c1ccc(Oc2ccccc2)cn1)c1cccc2c1C=CCCC2 (racemic) [Example 255, N-{(1RS,2RS)-2-hydroxy-2-(5-phenoxypyridin-2-yl)-1-[3-(1,1,2,2-tetrafluoroethoxy)benzyl]ethyl}-6,7-dihydro-5H-benzo[a][7]annulene-1-carboxamide]"
14,228 to 229,"O=C(O)CCC(=O)O[C@H](c1ccc(F)cc1)[C@H](Cc1ccc(C(F)(F)F)cc1)NC(=O)c1cccc2c(Cl)cccc12 (racemic) (as salt: succinate) [Example 394, (1RS,2SR)-2-[(5-chloro-1-naphthoyl)amino]-1-(4-fluorophenyl)-3-[4-(trifluoromethyl)phenyl]propyl hydrogen succinate]"
15,113 to 114,"CCOC(=O)N[C@H](Cc1cccc(OC(F)(F)C(F)F)c1)[C@@H](O)c1ccc(F)cc1 (racemic) [Example 129, ethyl N-[(1RS,2SR)-2-(4-fluorophenyl)-2-hydroxy-1-[3-(1,1,2,2-tetrafluoroethoxy)benzyl]ethyl]carbamate]"
16,125 to 126,"CC(=O)OCCOc1ccc([C@@H](O)[C@H](Cc2cccc(OC(F)(F)C(F)F)c2)NC(=O)c2cccc3c2C=CCCC3)cc1 (racemic) [Example 249, (4-{(1RS,2SR)-2-[(6,7-dihydro-5H-benzo[a][7]annulen-1-ylcarbonyl)amino]-1-hydroxy-3-[3-(1,1,2,2-tetrafluoroethoxy)phenyl]propyl}phenoxy)ethyl acetate]"
17,147 to 148,"O=C(N[C@H](Cc1cccc(OC(F)(F)C(F)F)c1)[C@@H](O)c1ccc(F)cc1)c1cccc2c1OCCCO2 (racemic) [Example 128, N-[(1RS,2SR)-2-(4-fluorophenyl)-2-hydroxy-1-[3-(1,1,2,2-tetrafluoroethoxy)benzyl]ethyl]-3,4-dihydro-2H-1,5-benzodioxepine-6-carboxamide]"
18,227 to 228,"O=C(N[C@H](Cc1ccc(C(F)(F)F)cc1)[C@@H](O)c1ccc(F)cc1)c1cccc2cc3ccccc3cc12 (racemic) [Example 66, N-((1RS,2SR)-2-(4-fluorophenyl)-2-hydroxy-1-((4-(trifluoromethyl)phenyl)methyl)ethyl)-1-anthracenecarboxamide]"
19,127 to 128,"O=C(N[C@H](Cc1cc(OC(F)(F)C(F)F)no1)[C@@H](O)c1ccc(F)cc1)c1cccc2c1C=CCCC2 (racemic) [Example 320, N-[(1RS,2SR)-2-(4-fluorophenyl)-2-hydroxy-1-[[3-(1,1,2,2-tetrafluoroethoxy)isoxazol-5-yl]methyl]ethyl]-6,7-dihydro-5H-benzo[a]cycloheptene-1-carboxamide]"
20,116 to 117,"COc1ccc([C@H](O)[C@@H](Cc2ccc(C(F)(F)F)cc2)NC(=O)CCc2ccccc2)cc1 (racemic) [Example 193, N-((1RS,2SR)-2-hydroxy-2-(4-methoxyphenyl)-1-((4-(trifluoromethyl)phenyl)methyl)ethyl)-3-phenylpropanamide]"
21,160 to 161,"O=C(Nc1ccc(C(F)(F)F)cc1)N[C@H](Cc1ccc(C(F)(F)F)cc1)[C@@H](O)c1ccc(F)cc1 (racemic) [Example 119, N-((1RS,2SR)-2-(4-fluorophenyl)-2-hydroxy-1-((4-(trifluoromethyl)phenyl)methyl)ethyl)-N′-(4-(trifluoromethyl)phenyl)urea]"
22,194 to 195,"O=C(N[C@H](Cc1ccc(C(F)(F)F)cc1)[C@@H](O)c1cccc2ccccc12)c1ccc(F)cc1 (racemic) [Example 188, 4-fluoro-N-((1RS,2SR)-2-hydroxy-2-(1-naphthalenyl)-1-((4-(trifluoromethyl)phenyl)methyl)ethyl)benzamide]"
23,148 to 150,"COc1ccccc1-c1ccc([C@H](O)[C@@H](Cc2cccc(OC(F)(F)C(F)F)c2)NC(=O)c2cccc3c2C=CCCC3)cc1 (racemic) [Example 296, N-[(1RS,2SR)-2-hydroxy-2-(2′-methoxy[1,1′-biphenyl]-4-yl)-1-[3-(1,1,2,2-tetrafluoroethoxy)benzyl]ethyl]-6,7-dihydro-5H-benzo[a]cycloheptene-1-carboxamide]"
24,237 to 238,"O=C1CC(C(=O)N[C@H](Cc2ccc(C(F)(F)F)cc2)[C@@H](O)c2ccc(F)cc2)c2ccccc21 (mixture of isomers) [Example 53, N-((1RS,2SR)-2-(4-fluorophenyl)-2-hydroxy-1-((4-(trifluoromethyl)phenyl)methyl)ethyl)-3-oxo-2,3-dihydro-1H-indene-1-carboxamide]"
25,123 to 124,"O=C(CCCc1cccs1)NC(Cc1ccc(C(F)(F)F)cc1)C(O)c1ccc(F)cc1 (racemic) [Example 4, N-(2-(4-fluorophenyl)-2-hydroxy-1-((4-(trifluoromethyl)phenyl)methyl)ethyl)-4-(2-thienyl)butyramide]"
26,120 to 121,"O=C(N[C@H](Cc1cccc(Oc2ccccc2)c1)[C@@H](O)c1ccc(F)cc1)c1ccc(F)c2ccccc12 (racemic) [Example 160, 4-fluoro-N-((1RS,2SR)-2-(4-fluorophenyl)-2-hydroxy-1-((3-(phenyloxy)phenyl)methyl)ethyl)-1-naphthalenecarboxamide]"

row,Structure (SMILES),melting point [°C]
1,"COC(=O)c1ccc([C@@H](O)[C@H](Cc2cccc(OC(F)(F)C(F)F)c2)NC(=O)OC(C)(C)C)cc1 (racemic) [Example 308, methyl 4-[(1RS,2SR)-2-[(tert-butoxycarbonyl)amino]-1-hydroxy-3-[3-(1,1,2,2-tetrafluoroethoxy)phenyl]propyl]benzoate]",148 to 150
